{
  "source": "patent US9175016B2",
  "about": "“Prochelators useful for inhibiting metal-associated toxicity” (Duke University, priority 2009, dated 2015)",
  "key": {"[1]": {"settings": "preliminary investigations", "text": "Quinoline boronic acid (QBA) is commercially available. […] In order to prevent premature metal binding, it was therefore necessary to form a boronic ester."}, "Aβ [2]": {"system": "Aβ", "experiment": "UV-vis analysis of H2O2-treated Aβ samples", "type": "biochemical", "settings": "samples containing Aβ/Cu/QBP/H2O2", "text": "FIG. 5. UV-vis analysis of H2O2-treated Aβ samples. The samples are the same ones as in FIG. 4.\nFurther confirmation that Cu(8HQ)2 is, indeed, generated in the reaction of Aβ/Cu/QBP/H2O2 described in FIG. 4 comes from the UV-vis spectrum of the reaction mixture, shown in FIG. 5.\n(§1) The complex [Cu(8HQ)2] has a characteristic absorbance band at 375 nm, which is clearly visible in samples that contain Aβ, Cu^2+ and 8HQ. […] Mass spectral analysis of the sample gives m/z of 352, further confirming formation of [Cu(8HQ)2] in these complex mixtures. The previous experiment contained a relatively high concentration (1 mM) of H2O2 that was added in a single bolus. Several groups have shown that combinations of Aβ, Cu and reductants produce significant amounts of H2O2 from O2. Therefore, to investigate whether these conditions of more biologically relevant H2O2 production are sufficient for activating QPB, samples of Aβ, Cu^2+ (provided as Cu(Gly)2), ascorbic acid, and either 8HQ or QBP were monitored for H2O2 production with the Amplex Red assay. […] Samples that contain Cu and ascorbate (with or without Aβ) provide just over 300 nM detectable H2O2. […] When 8HQ is present at a 2:1 ratio to Cu, the amount of detectable H2O2 diminishes to one third that detected in the presence of Aβ. […] When QBP is added to the reaction mixture in place of 8HQ, a similar result is obtained."}, "[3]": {"experiment": "Stability of QBP in aqueous solution (hydrolysis to QBA), monitored by UV-Vis and mass spectrometry", "type": "physicochemical"}, "H2O2 production by Cu": {"system": "H2O2 production by Cu", "experiment": "Hydrogen peroxide detection by the Amplex Red/HRP assay (Aβ, Cu(Gly)2, ascorbic acid)", "type": "biochemical", "procedure": "FIG. 6. Hydrogen peroxide detection by the Amplex Red/HRP assay for samples containing various combinations of 200 nm Aβ, 200 nm Cu(Gly)2, 10 μM ascorbic acid, 2-200 μM QBP, 50-400 nm 8HQ, in a total volume of 50 μL buffer (50 mM hepes, 150 mM NaCl). Samples were incubated at 37° C. for approximately 1 h before 50 μL of Amplex Red/HRP reagent was added. Fluorescence readings were taken with λex=485 and λem=590 nm.\nas §1"}, "[4]": {"experiment": "Rate of conversion of QBP to 8HQ by H2O2 (pseudo first-order, spectrophotometric)", "type": "physicochemical", "settings": "100 μM QBP, PBS pH 7.4, 1-10 mM H2O2", "procedure": "FIG. 3. Plot of kobs at varying concentrations of H2O2 to obtain the rate constant k for the conversion of QBP to HQ. QBP was initially dissolved in a minimal amount of methanol and then diluted into PBS buffer, pH 7.4, to a final concentration of 100 μM. Spectra were taken immediately after addition of 1-10 mM H2O2; at least 40 spectra were collected before 50% conversion of prochelator to chelator. The change in absorbance at 273 nm was used to follow the reaction. The negative slope of the linear fit of ln(1−(A−Ao/Ao)) vs time gives the observed rate constant kobs. The slope of the line through data kobs vs [H2O2] provides k (M^−1 s^−1).\nIn order to determine the rate of conversion of QBP to 8HQ by H2O2 (Eq. 2), reactions were monitored spectrophotometrically under pseudo first-order conditions of excess H2O2. The observed rate constants (kobs) were plotted against peroxide concentration (FIG. 3) to give a rate constant k of 0.13 M^−1 s^−1. rate=k[QBP][H2O2] Eq. 2"}, "Aβ [5]": {"system": "Aβ", "experiment": "Turbidity (light scattering) assay of metal-induced Aβ aggregation", "type": "biochemical", "procedure": "FIG. 4. […] Samples, which contain various combinations of 10 μM Aβ, 10 μM Cu(Gly)2, 10 μM ZnCl2, 10 or 20 μM 8HQ, 20 or 100 μM QBA, 20 or 100 μM QBP, as indicated on the graph, were incubated in a 96 well plate at 37° C. Total volume per well was made up to 200 μL with Hepes buffer. Abs readings were taken 64 min after mixing (diagonal hashed bars). After one hour incubation, 1 mM H2O2 was added to each well and Abs readings were taken after 30 min (horizontal striped bars). Error bars represent the variability of triplicate measurements."}, "[6]": {"experiment": "UV-vis spectra of oxidation and Cu2+ binding by QBP", "settings": "100 μM QBP", "procedure": "FIG. 2. Oxidation and Cu^2+ binding by QBP. 100 μM QBP and 50 μM Cu(Gly)2 were incubated in PBS buffer pH 7.4. After one hour, 4 mM H2O2 was added. After 60 min, oxidation and Cu binding were complete. Resulting spectrum is nearly identical to 8HQ-Cu spectra.\nWith the phenol of 8HQ masked by the pinanediol boronic ester, the QBP prochelator should have little to no affinity for metal ions."}},
  "data": [
    {"smiles": "OBO.c1ccc2ncccc2c1", "note": "[QBA, Quinoline boronic acid]", "values": [
      {"measurement": "interaction with metal ions", "setting": "[1]", "result": "interacts directly with metal ions"}
    ]},
    {"smiles": "CC1(C)C2CC3OB(c4cccc5cccnc45)OC3(C)C1C2", "note": "(stereo not shown) [QBP]", "values": [
      {"measurement": "formation of [Cu(8HQ)2] (absorbance band at 375 nm)", "setting": "Aβ [2]", "result": "[Cu(8HQ)2] has, indeed, been generated"},
      {"measurement": "hydrolysis to QBA in aqueous solution", "setting": "[3]; between pH 5-8, over the course of 10 h", "result": "no signs of hydrolysis"},
      {"measurement": "hydrolysis to QBA in aqueous solution", "setting": "[3]; low and high pH values outside pH 5-8, mass spectrometry", "result": "some hydrolysis to QBA was detected"},
      {"measurement": "H2O2 detected relative to the concentration obtained in the absence of chelator", "setting": "H2O2 production by Cu; 100 μM QBP with Cu, ascorbate and Aβ", "result": "a third"},
      {"measurement": "H2O2 detected", "setting": "H2O2 production by Cu; 100 μM QBP with Cu, ascorbate and Aβ, 1-h incubation", "result": "about 100 nM"},
      {"measurement": "rate constant k for conversion of QBP to 8HQ by H2O2", "setting": "[4]", "result": 0.13, "unit": "M⁻¹ s⁻¹"},
      {"measurement": "turbidity of Aβ/Cu2+ samples after H2O2 addition", "setting": "Aβ [5]; 1 mM H2O2 added after one hour incubation, read 30 min later", "result": "significant decrease in turbidity"},
      {"measurement": "metal-induced Aβ aggregation", "setting": "Aβ [5]; 20 or 100 μM QBP, no H2O2", "result": "does not interfere"},
      {"measurement": "time after H2O2 addition at which oxidation and Cu binding were complete", "setting": "[6]; 50 μM Cu(Gly)2, PBS pH 7.4, 4 mM H2O2", "result": 60, "unit": "min"},
      {"measurement": "spectrum after addition of H2O2", "setting": "[6]; 50 μM Cu(Gly)2, PBS pH 7.4, 4 mM H2O2 added", "result": "matches that of [Cu(8HQ)2]"},
      {"measurement": "interaction with Cu2+ in prochelator form (UV-vis spectral change)", "setting": "[6]; 50 μM Cu(Gly)2, PBS pH 7.4, one hour, no H2O2", "result": "does not interact with Cu^2+"}
    ]},
    {"smiles": "Oc1cccc2cccnc12", "note": "[8HQ, 8-hydroxyquinoline, reference compound]", "values": [
      {"measurement": "amount of detectable H2O2 relative to that detected in the presence of Aβ", "setting": "H2O2 production by Cu; 8HQ at a 2:1 ratio to Cu", "result": "one third"},
      {"measurement": "H2O2 production", "setting": "H2O2 production by Cu; 8HQ at a quarter of an equiv of Cu, 200 nM Cu(Gly)2, 200 nM Aβ, 10 μM ascorbic acid, 1-h incubation, pH 7.4", "result": "inhibits H2O2 production"},
      {"measurement": "copper-induced Aβ aggregation", "setting": "Aβ [5]; 2 equiv of 8HQ, 10 μM Aβ, 10 μM Cu(Gly)2, 37° C.", "result": "completely inhibits"},
      {"measurement": "zinc-induced Aβ aggregation", "setting": "Aβ [5]; 2 equiv of 8HQ, 10 μM Aβ, 10 μM ZnCl2, 37° C.", "result": "significantly reduces"}
    ]}
  ]
}
